Our source for the IC50 values is article PMC9623604 (European journal of pharmacology, 2022).

The target in the experiment is mitochondrial complex I (NADH:ubiquinone oxidoreductase) (Mus musculus, UniProt P03888+Q91WD5+Q9DC70). It is filed as biochemical.

The structures appear in SMILES notation.

Turning to `CN(C)C(=N)N=C(N)N` [metformin], the IC50 (usually the midpoint of a concentration-inhibition curve) is about 2000 µM.
